Results: patent US20260308185A1, “STAT DEGRADERS AND USES THEREOF” (Recludix Pharma, Inc., priority 2023, published 2026)

Key:
[1] = molecular target: T1, Recombinant STAT3 protein (STAT3(G127-I722)) (Homo sapiens, UniProt P40763); test: STAT3 Fluorescence Polarization (FP) Assay; type: binding; settings: 25 nM STAT3(G127-I722), 2 nM 5-FAM-GpYLPQTV-NH2 probe, pH 7.4, 45-minute incubation at room temperature
T1 construct: Recombinant STAT3 protein (STAT3(G127-I722))
Procedure: An FP assay was developed to determine IC50 values for test substances. Recombinant STAT3 protein (STAT3(G127-I722)) at 25 nM was combined with a fluorescently labeled, phosphotyrosine peptide probe (5-FAM-GpYLPQTV-NH2) at 2 nM in FP buffer (10 mM HEPES pH 7.4, 50 mM NaCl. 1 mM EDTA, 0.05% Tween 20, 2 mM DTT). 50 μL of STAT3-probe mixture was added to serial diluted compounds in black, 96-well plates (Greiner BioOne 655076) to a final concentration of 1% DMSO. Reaction components were mixed, and FP was measured after 45-minute incubation at room temperature using a Tecan Spark multimode plate reader. FP signal (mP) was plotted against the log concentration of the test substances and IC50 values were calculated by nonlinear regression analysis using GraphPad Prism software. For STAT3 FP assay, A=≤100 nM; B=>100-1000 nM; C=>1-10 μM; and D=>10 μM.

[2] = test system: pSTAT6 (pY641-STAT6) in PBMC; test: MSD-pSTAT-PBMC Assay (pSTAT6); type: cell-based; settings: compound 3 hrs, then 1 ng/mL IL-4 for 10 min
Description: Cryopreserved Peripheral Blood Mononuclear Cells (PBMC) are from AllCells. Recombinant Human […] and IL-6 are from Peprotech. Mouse monoclonal anti-STAT3 antibody, rabbit monoclonal anti-pY705-STAT3 antibody, rabbit monoclonal Anti-pY641-STAT6 antibody, and lysis buffer are from Cell Signaling Technology (CST). Mouse monoclonal anti-STAT6 antibody is from BioLegend. Assay plates, blocker, and anti-rabbit secondary antibody are from Meso Scale Discovery (MSD).
Cryopreserved PBMCs were thawed out and allowed to recover overnight in IMDM+10% heat-inactivated FBS prior to plating 50,000 (STAT3) or 25,000 (STAT6) cells per well in 96-well U-bottom tissue culture plates. Cells were treated with compound for 3 hrs, then stimulated with 10 ng/mL IL-6 (STAT3) or 1 ng/mL IL-4 (STAT6) for 10 min. Cells were then spun down and washed with ice-cold PBS prior to lysing the cell pellet with 1× lysis buffer (CST) with 1× HALT protease and phosphatase inhibitor cocktail (Thermo). Lysates were transferred to and incubated overnight at 4° C. with shaking in QuickPlex 96-well high bind assay plates (MSD) pre-coated overnight with 30 μL per well of 0.6 μg/mL mouse monoclonal anti-STAT3 antibody (STAT3) or 2 μg/mL mouse monoclonal anti-STAT6 antibody (STAT6) in 1×PBS, and pre-blocked for 1 hour with 3% Blocker-A (MSD). Captured protein in the assay plates were then washed and probed with 25 μL per well of 0.25 μg/ml rabbit monoclonal anti-pY705-STAT3 antibody (STAT3) or 0.18 μg/ml rabbit monoclonal Anti-pY641-STAT6 antibody (STAT6) in 1% Blocker-A for 1 hour at room temperature with shaking, then washed and probed with 25 ul per well of 1 ug/ml Sulfo-TAG Labeled Goat Anti-Rabbit Antibody (MSD) in 1% Blocker-A for 1 hour at room temperature with shaking. Assay plates were then washed and 150 μL of 1× Read Buffer-T (MSD) was added to each well prior to reading on an SQ120 MSD Plate Reader. Assay signal from each sample was subtracted by the signal from unstimulated control wells and normalized to DMSO control wells, IC50 values were calculated using Graph Pad Prism Dose-Response Nonlinear Regression with variable slope. For both pSTAT3 and pSTAT6 A=≤100 nM; B=>100-1000 nM; C=>1000-3000 nM; and D=>3 μM.

[3] = molecular target: T2, Recombinant STAT6 protein (STAT6(W123-T658)) (Homo sapiens, UniProt P42226); test: STAT6 Fluorescence Polarization (FP) Assay; type: binding; settings: 250 nM STAT6(W123-T658), 2 nM 5-FAM-Ap[…]-NH2 probe, pH 7.4, 45-minute incubation at room temperature
T2 construct: Recombinant STAT6 protein (STAT6(W123-T658))
T2 sequence (P42226 123-658): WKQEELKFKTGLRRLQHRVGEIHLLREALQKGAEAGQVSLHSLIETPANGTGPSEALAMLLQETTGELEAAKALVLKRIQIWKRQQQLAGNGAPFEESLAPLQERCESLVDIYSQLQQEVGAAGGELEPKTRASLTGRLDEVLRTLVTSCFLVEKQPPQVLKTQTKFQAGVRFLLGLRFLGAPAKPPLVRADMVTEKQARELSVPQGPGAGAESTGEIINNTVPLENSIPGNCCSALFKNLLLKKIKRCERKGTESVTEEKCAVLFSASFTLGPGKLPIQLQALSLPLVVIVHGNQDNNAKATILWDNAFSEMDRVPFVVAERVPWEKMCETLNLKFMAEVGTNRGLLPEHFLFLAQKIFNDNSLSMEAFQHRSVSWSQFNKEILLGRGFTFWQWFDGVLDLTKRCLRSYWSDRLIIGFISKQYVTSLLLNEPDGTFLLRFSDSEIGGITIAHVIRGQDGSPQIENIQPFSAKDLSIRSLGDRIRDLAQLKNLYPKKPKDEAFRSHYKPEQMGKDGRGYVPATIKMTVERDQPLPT
Procedure: An FP assay was developed to determine IC50 values for test substances. Recombinant STAT6 protein (STAT6(W123-T658)) at 250 nM was combined with a fluorescently labeled, phosphotyrosine peptide probe (5-FAM-Ap[…]-NH2) at 2 nM in FP buffer (10 mM HEPES pH 7.4, 50 mM NaCl, 1 mM EDTA, 0.05% Tween 20, 2 mM DTT). 50 μL of STAT6-probe mixture was added to serial diluted compounds in black, 96-well plates (Greiner BioOne 655076) to a final concentration of 1% DMSO. Reaction components were mixed, and FP w as measured after 45-minute incubation at room temperature using a Tecan Spark multimode plate reader. FP signal (mP) was plotted against the log concentration of the test substances and IC50 values were calculated by nonlinear regression analysis using GraphPad Prism software. For STAT6 FP assay. A=≤300 nM; B=>300-3000 nM; C=>3-30 μM; and D=>30 μM.

T1 sequence (P40763 127-722): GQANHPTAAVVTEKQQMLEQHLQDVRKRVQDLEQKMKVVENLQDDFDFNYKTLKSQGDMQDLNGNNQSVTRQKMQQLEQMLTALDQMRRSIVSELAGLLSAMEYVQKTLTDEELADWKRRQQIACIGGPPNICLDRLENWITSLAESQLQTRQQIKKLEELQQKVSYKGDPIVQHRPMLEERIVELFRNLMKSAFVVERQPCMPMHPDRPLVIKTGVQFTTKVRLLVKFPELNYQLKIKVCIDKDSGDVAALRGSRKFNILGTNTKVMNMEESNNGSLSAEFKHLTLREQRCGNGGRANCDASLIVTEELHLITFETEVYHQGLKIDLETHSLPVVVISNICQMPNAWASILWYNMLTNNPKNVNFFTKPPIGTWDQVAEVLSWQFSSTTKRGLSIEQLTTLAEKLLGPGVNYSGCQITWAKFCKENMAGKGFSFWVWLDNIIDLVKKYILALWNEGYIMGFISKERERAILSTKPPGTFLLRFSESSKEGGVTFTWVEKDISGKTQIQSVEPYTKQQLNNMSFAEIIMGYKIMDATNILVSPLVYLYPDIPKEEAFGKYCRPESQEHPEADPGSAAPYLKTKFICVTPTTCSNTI

| IC50 [1] [nM] | IC50 [3] [nM] | Structure (SMILES) | IC50 [2] [nM] |
| --- | --- | --- | --- |
| 1000 to 10000 | 300 to 3000 | O=C1CCC(N2Cc3c(OCCOCCOCCn4ccc([C@@H]5CN(C(=O)[C@@H]6CC[C@@H]7C[C@H]8C[C@H]8C[C@H](NC(=O)c8cc9cc(C(F)(F)P(=O)(O)O)ccc9s8)C(=O)N76)C6(CC6)C5)cc4=O)cccc3C2=O)C(=O)N1 (stereo partly drawn) [Compound 17, ((2-(((3S,6S,7aS,8aR,9aR)-3-((6R)-6-(1-(2-(2-(2-((2-(2,6-dioxopiperidin-3-yl)-1-oxoisoindolin-4-yl)oxy)ethoxy)ethoxy)ethyl)-2-oxo-1,2-dihydropyridin-4-yl)-4-azaspiro[2.4]heptane-4-carbonyl)-5-oxodecahydro-1H-cyclopropa[d]pyrrolo[1,2-a]azocin-6-yl)carbamoyl)benzo[b]thiophen-5-yl)difluoromethyl)phosphonic acid] | > 3000 |
| 100 to 1000 | 300 to 3000 | O=C1CCC(N2Cc3c(C#CCCCCCCn4ccc([C@@H]5CN(C(=O)[C@@H]6CC[C@@H]7C[C@H]8C[C@H]8C[C@H](NC(=O)c8cc9cc(C(F)(F)P(=O)(O)O)ccc9s8)C(=O)N76)C6(CC6)C5)cc4=O)cccc3C2=O)C(=O)N1 (stereo partly drawn) [Compound 5, ((2-(((3S,6S,7aS,8aR,9aR)-3-((6R)-6-(1-(8-(2-(2,6-dioxopiperidin-3-yl)-1-oxoisoindolin-4-yl)oct-7-yn-1-yl)-2-oxo-1,2-dihydropyridin-4-yl)-4-azaspiro[2.4]heptane-4-carbonyl)-5-oxodecahydro-1H-cyclopropa[d]pyrrolo[1,2-a]azocin-6-yl)carbamoyl)benzo[b]thiophen-5-yl)difluoromethyl)phosphonic acid] | 100 to 1000 |
| 100 to 1000 | < 300 | O=C1CCC(c2ccc(OCCCCCn3ccc([C@@H]4CN(C(=O)[C@@H]5CC[C@@H]6C[C@H]7C[C@H]7C[C@H](NC(=O)c7cc8cc(C(F)(F)P(=O)(O)O)ccc8s7)C(=O)N65)C5(CC5)C4)cc3=O)cc2)C(=O)N1 (stereo partly drawn) [Compound 10, ((2-(((3S,6S,7aS,8aR,9aR)-3-((6R)-6-(1-(5-(4-(2,6-dioxopiperidin-3-yl)phenoxy)pentyl)-2-oxo-1,2-dihydropyridin-4-yl)-4-azaspiro[2.4]heptane-4-carbonyl)-5-oxodecahydro-1H-cyclopropa[d]pyrrolo[1,2-a]azocin-6-yl)carbamoyl)benzo[b]thiophen-5-yl)difluoromethyl)phosphonic acid] | 1000 to 3000 |
| 100 to 1000 | 300 to 3000 | O=C1CCC(n2c(=O)[nH]c3cc(N4CCC(n5ccc([C@@H]6CN(C(=O)[C@@H]7CC[C@@H]8C[C@H]9C[C@H]9C[C@H](NC(=O)c9cc%10cc(C(F)(F)P(=O)(O)O)ccc%10s9)C(=O)N87)C7(CC7)C6)cc5=O)CC4)ccc32)C(=O)N1 (stereo partly drawn) [Compound 19, ((2-(((3S,6S,7aS,8aR,9aR)-3-((6R)-6-(1-(1-(1-(2,6-dioxopiperidin-3-yl)-2-oxo-2,3-dihydro-1H-benzo[d]imidazol-5-yl)piperidin-4-yl)-2-oxo-1,2-dihydropyridin-4-yl)-4-azaspiro[2.4]heptane-4-carbonyl)-5-oxodecahydro-1H-cyclopropa[d]pyrrolo[1,2-a]azocin-6-yl)carbamoyl)benzo[b]thiophen-5-yl)difluoromethyl)phosphonic acid] | > 3000 |
| 100 to 1000 | 300 to 3000 | N#CC1CN(C(=O)C2CCC3CC4CC4CC(NC(=O)c4cc5cc(C(F)(F)P(=O)(O)O)ccc5s4)C(=O)N32)CC1c1cccc(OCCCCCC#Cc2cccc3c2CN(C2CCC(=O)NC2=O)C3=O)c1 [Compound 7, ((2-(((3S,6S,7aS,8aR,9aR)-3-((rel-3S,4R)-3-cyano-4-(3-((7-(2-(2,6-dioxopiperidin-3-yl)-1-oxoisoindolin-4-yl)hept-6-yn-1-yl)oxy)phenyl)pyrrolidine-1-carbonyl)-5-oxodecahydro-1H-cyclopropa[d]pyrrolo[1,2-a]azocin-6-yl)carbamoyl)benzo[b]thiophen-5-yl)difluoromethyl)phosphonic acid] | > 3000 |
| 100 to 1000 | < 300 | N#CC1CN(C(=O)C2CCC3CC4CC4CC(NC(=O)c4cc5cc(C(F)(F)P(=O)(O)O)ccc5s4)C(=O)N32)CC1c1cccc(OCCOCCOc2cccc3c2CN(C2CCC(=O)NC2=O)C3=O)c1 [Compound 15, ((2-(((3S,6S,7aS,8aR,9aR)-3-((rel-3S,4R)-3-cyano-4-(3-(2-(2-((2-(2,6-dioxopiperidin-3-yl)-1-oxoisoindolin-4-yl)oxy)ethoxy)ethoxy)phenyl)pyrrolidine-1-carbonyl)-5-oxodecahydro-1H-cyclopropa[d]pyrrolo[1,2-a]azocin-6-yl)carbamoyl)benzo[b]thiophen-5-yl)difluoromethyl)phosphonic acid] | > 3000 |
| 100 to 1000 | < 300 | N#CC1CN(C(=O)C2CCC3CC4CC4CC(NC(=O)c4cc5cc(C(F)(F)P(=O)(O)O)ccc5s4)C(=O)N32)CC1c1cccc(N2CCN(c3ccc4c(c3)[nH]c(=O)n4C3CCC(=O)NC3=O)CC2)c1 [Compound 13, ((2-(((3S,6S,7aS,8aR,9aR)-3-((rel-3S,4R)-3-cyano-4-(3-(4-(1-(2,6-dioxopiperidin-3-yl)-2-oxo-2,3-dihydro-1H-benzo[d]imidazol-5-yl)piperazin-1-yl)phenyl)pyrrolidine-1-carbonyl)-5-oxodecahydro-1H-cyclopropa[d]pyrrolo[1,2-a]azocin-6-yl)carbamoyl)benzo[b]thiophen-5-yl)difluoromethyl)phosphonic acid] | 100 to 1000 |

| Structure (SMILES) | IC50 [1] [nM] | IC50 [3] [nM] | IC50 [2] [nM] |
| --- | --- | --- | --- |
| N#CC1CN(C(=O)C2CCC3CC4CC4CC(NC(=O)c4cc5cc(C(F)(F)P(=O)(O)O)ccc5s4)C(=O)N32)CC1c1cccc(OCCCCOc2ccc(C3CCC(=O)NC3=O)cc2)c1 [Compound 3, ((2-(((3S,6S,7aS,8aR,9aR)-3-((rel-3S,4R)-3-cyano-4-(3-(4-(4-(2,6-dioxopiperidin-3-yl)phenoxy)butoxy)phenyl)pyrrolidine-1-carbonyl)-5-oxodecahydro-1H-cyclopropa[d]pyrrolo[1,2-a]azocin-6-yl)carbamoyl)benzo[b]thiophen-5-yl)difluoromethyl)phosphonic acid] | 1000 to 10000 | 300 to 3000 | > 3000 |
